Results on five molecules are retold here after patent US4514410A, “Substituted 8-phenylisoxazolo[4,3-e][1,4]diazepin-5-ones” (Hoechst-Roussel Pharmaceuticals Inc., priority 1984, dated 1985).

For assay [1], the system named is extensor tonus in electroshocked mice. Put plainly: Inhibition of extensor tonus induced by electroshock in mice (anticonvulsant). The format is in vivo. Particulars: Mus musculus, effective dose for 50% inhibition of extensor tonus. The source says:
The anti-convulsant activity of some of the compounds of this invention expressed in terms of the effective dose for 50% inhibition of extensor tonus in mg/kg of body weight in electroshocked mice is given in Table I.

Assay [2] is described as follows: Average conflict response ratio (anxiolytic). Type of assay: in vivo. Particulars: drug:control. On the procedure:
The compounds of the invention are also useful as anxiolytic agents due to their ability to reduce anxiety in mammals. Anxiolytic activity is measured as the average conflict response ratio (drug:control) at 40 mg/kg of body weight.

Molecule `CC1=C2C(=C(c3ccccc3Cl)N=CC(=O)N2C)NO1` [3,4-Dimethyl-8-(2-chlorophenyl)isoxazolo[4,3-e][1,4]diazepin-5-one] returned an ED50 in assay [1] of 35.6 mg/kg. Further, the “Average Conflict Response Ratio” value in assay [2] (at 40 mg/kg of body weight) is reported as 18.2.

`CC1=C2C(=C(c3ccccc3F)N=CC(=O)N2C)NO1` [3,4-Dimethyl-8-(2-fluorophenyl)isoxazolo[4,3-e][1,4]diazepin-5-one]: the ED50 in assay [1] turned out to be 79.8 mg/kg. The “Average Conflict Response Ratio” value in assay [2] (at 40 mg/kg of body weight) is 11.2.

In turn, `CC1=C2C(=C(c3ccccc3)N=CC(=O)N2C)NO1` [3,4-Dimethyl-8-phenylisoxazolo[4,3-e][1,4]diazepin-5-one] showed an ED50 in assay [1] of 25.1 mg/kg. Besides, the “Average Conflict Response Ratio” value in assay [2] (at 40 mg/kg of body weight) is 31.7.

`CC(=O)Nc1nnc(S(N)(=O)=O)s1` [acetazolamide, reference compound]: the ED50 in assay [1] turned out to be 29.1 mg/kg.

For the molecule `CNC1=Nc2ccc(Cl)cc2C(c2ccccc2)=[N+]([O-])C1` [chlordiazepoxide, reference compound], in assay [2] (@ 20 mg/kg (standard)), the “Average Conflict Response Ratio” value stood at 32.6.
